A value given as a limit tells only on which side of the number the result lay.

The target of the assay is T1, N-formyl peptide receptor 2 (Homo sapiens, UniProt P25090).
T1 sequence (P25090 whole entry): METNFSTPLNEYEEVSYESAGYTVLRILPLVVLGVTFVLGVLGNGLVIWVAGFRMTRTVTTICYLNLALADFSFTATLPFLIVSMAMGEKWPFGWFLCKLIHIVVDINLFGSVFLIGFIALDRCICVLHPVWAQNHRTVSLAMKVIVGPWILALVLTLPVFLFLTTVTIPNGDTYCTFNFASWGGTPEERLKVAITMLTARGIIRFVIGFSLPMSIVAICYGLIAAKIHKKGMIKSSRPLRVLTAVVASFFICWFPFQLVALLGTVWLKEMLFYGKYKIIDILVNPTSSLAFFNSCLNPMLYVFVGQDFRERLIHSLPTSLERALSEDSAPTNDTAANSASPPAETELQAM
Briefly: concentration-dependent FPRL1 ligand displacement – cell-based, FPR counter-screen, fluorescent ligand, dose response (AID 520). On the technique in general: A counterscreen serves to expose hits that act by an unwanted route or on another target.
As a reminder, the IC50 is the concentration at which inhibition is half-maximal. A lower IC50 goes with inhibition by little substance. What is called Ki is the dissociation constant of the complex between target and ligand, obtained from inhibition or displacement. The low end stands for higher affinity, the high end for lower affinity. For `CCOc1cc(C2C(C(=O)c3ccco3)C(=O)C(=O)N2CCc2ccccc2)ccc1O` (stereo not given) [2-(3-ethoxy-4-hydroxyphenyl)-3-(furan-2-carbonyl)-4-hydroxy-1-(2-phenylethyl)-2H-pyrrol-5-one], the IC50 is above 66.7 µM and the Ki is above 40.3 µM.
With `CCOC(=O)C1CCN(Cc2ccc(C(=O)OC)cc2)CC1` [1-(4-carbomethoxybenzyl)isonipecotic acid ethyl ester], the half-maximal inhibitory concentration (IC50) is above 66.7 µM.
On the same count and under the same terms, under `O=C(c1ccc(Cl)cc1)N(Cc1cccs1)C1CCS(=O)(=O)C1` (stereo not given) [4-chloro-N-(1,1-diketothiolan-3-yl)-N-(2-thenyl)benzamide] stands above 66.7 µM.
Consider `COCCCN1C(=O)C(=O)C(C(=O)c2ccccc2)C1c1ccc2c(c1)OCO2` (stereo not given) [(4E)-5-(1,3-benzodioxol-5-yl)-1-(3-methoxypropyl)-4-[oxidanyl(phenyl)methylidene]pyrrolidine-2,3-dione], for which the IC50 is above 66.7 µM and the Ki was above 40.3 µM.
Compound `CCOc1ccccc1NC(=O)CSc1nccn1-c1ccccc1` [MLS000090721] registered an IC50 above 66.7 µM.
`CCOc1ccc(C(=O)C2C(=O)C(=O)N(CC3CCCO3)C2c2ccco2)cc1` (stereo not given) [(4Z)-4-[(4-ethoxyphenyl)-hydroxymethylidene]-5-(2-furanyl)-1-(2-oxolanylmethyl)pyrrolidine-2,3-dione] gave an IC50 above 66.7 µM and a Ki above 40.3 µM.
Regarding `O=c1c2c(nc3c(-c4ccc(Cl)cc4)c[nH]n13)CCCC2`, the IC50 is above 66.7 µM.
In the case of `CSCCC1c2c(-c3cccs3)n[nH]c2OC(=N)C1C#N` (stereo not given) [6-azanyl-4-(2-methylsulfanylethyl)-3-thiophen-2-yl-2,4-dihydropyrano[2,3-c]pyrazole-5-carbonitrile], the IC50 was above 66.7 µM and the Ki was above 40.3 µM.
Taken in the same sequence, the figures for `COCCCN1C(=O)C(=O)C(C(=O)c2ccc(OC)cc2C)C1c1cccnc1` (stereo not given) [(4E)-4-[(4-methoxy-2-methyl-phenyl)-oxidanyl-methylidene]-1-(3-methoxypropyl)-5-pyridin-3-yl-pyrrolidine-2,3-dione] were above 66.7 µM and above 40.3 µM.
The compound `COc1cccc(OC)c1C(=O)C(C#N)c1nc2ccccc2[nH]1` (stereo not given) [SMR000024183] displayed an IC50 above 66.7 µM and an inhibition constant (Ki) above 40.3 µM.
Taken in the same sequence, the figures for `COc1ccc(C(=O)C2C(=O)C(=O)N(Cc3ccco3)C2c2ccc(OC)cc2OC)cc1` (stereo not given) [(4E)-5-(2,4-dimethoxyphenyl)-1-(2-furanylmethyl)-4-[hydroxy-(4-methoxyphenyl)methylidene]pyrrolidine-2,3-dione] were above 66.7 µM and above 40.3 µM.
`CCc1ccccc1NC(=O)C(C#N)Cc1cccnc1` (stereo not given) [2-Cyano-N-(2-ethyl-phenyl)-2-pyridin-3-ylmethyl-acetamide] displayed an IC50 above 66.7 µM.
For `Cc1csc(NC(=O)CCn2c(=O)oc3ccccc32)n1` [3-(2-keto-1,3-benzoxazol-3-yl)-N-(4-methylthiazol-2-yl)propionamide], the IC50 is above 66.7 µM.
Regarding `COc1ccccc1C1C(C(=O)c2ccccc2)C(=O)C(=O)N1CC(C)C` (stereo not given) [(4Z)-4-[hydroxy(phenyl)methylene]-1-isobutyl-5-(2-methoxyphenyl)pyrrolidine-2,3-quinone], the IC50 is above 66.7 µM and the Ki was above 40.3 µM.
On to `Cc1cccc(-n2nc3c(c2NC(=O)c2ccco2)CSC3)c1C` [MLS000095654], for which the IC50 was above 66.7 µM.
Still for that read-out and setting: under `COc1ccccc1-c1c(C)oc2cc(OC(=O)c3ccco3)ccc2c1=O` [[3-(2-methoxyphenyl)-2-methyl-4-oxidanylidene-chromen-7-yl] furan-2-carboxylate] stands above 66.7 µM.
Consider `COc1cccc(C(=O)C2C(=O)C(=O)N(Cc3cccnc3)C2c2ccco2)c1` (stereo not given) [(4Z)-5-(2-furanyl)-4-[hydroxy-(3-methoxyphenyl)methylidene]-1-(3-pyridinylmethyl)pyrrolidine-2,3-dione], for which the IC50 is above 66.7 µM and the Ki is above 40.3 µM.
Compound `Cc1cccc(OCC(=O)Nc2cc(C)ccc2O)c1` [MLS000100112] displayed an IC50 above 66.7 µM.
`CCC(=O)Nc1c(C#N)c2nc3ccccc3nc2n1-c1ccccc1C` [SMR000039884]: the IC50 is above 66.7 µM.
Compound `COc1ccc2cnn(-c3ccccc3)c(=O)c2c1OC` [7,8-dimethoxy-2-phenyl-1(2H)-phthalazinone] registered an IC50 above 66.7 µM.
Consider `Cc1ccc(C2C(C(=O)c3sc(C)nc3C)C(=O)C(=O)N2CCN2CCOCC2)o1` (stereo not given) [3-(2,4-dimethyl-1,3-thiazole-5-carbonyl)-4-hydroxy-2-(5-methylfuran-2-yl)-1-(2-morpholin-4-ylethyl)-2H-pyrrol-5-one], for which the IC50 was above 66.7 µM and the Ki was above 40.3 µM.
Compound `Cc1[nH]n2c(=O)c(C#N)c(-c3ccccc3)nc2c1-c1ccccc1` [SMR000047798] gave a concentration for half-maximal inhibition (IC50) above 66.7 µM.
With `CN(C)c1nc(N(C)C)nc(N(C)C)n1` [ALTRETAMINE], the IC50 was above 66.7 µM.
Still for that read-out and setting: to `CC1Oc2ccccc2N(Cc2ccccc2Cl)C1=O` (stereo not given) [4-(2-Chloro-benzyl)-2-methyl-4H-benzo[1,4]oxazin-3-one] belongs above 66.7 µM; to `CCc1nn2c(=O)cc(CSc3nc4sc5c(c4c(=O)n3C)CCCC5)nc2s1` [2-[(2-ethyl-5-keto-[1,3,4]thiadiazolo[3,2-a]pyrimidin-7-yl)methylthio]-3-methyl-5,6,7,8-tetrahydrobenzothiopheno[2,3-d]pyrimidin-4-one], above 66.7 µM.
As for `Cc1ccc(C2C(C(=O)c3ccc(Br)cc3)C(=O)C(=O)N2Cc2ccco2)o1` (stereo not given) [(4Z)-4-[(4-bromophenyl)-hydroxy-methylene]-1-(2-furfuryl)-5-(5-methyl-2-furyl)pyrrolidine-2,3-quinone], the 50% inhibitory concentration (IC50) was above 66.7 µM and the inhibition constant (Ki) is above 40.3 µM.
For `COC(=O)C1(S(=O)(=O)c2cccc3nsnc23)CC1` [1-(2,1,3-benzothiadiazol-4-ylsulfonyl)-1-cyclopropanecarboxylic acid methyl ester], the IC50 is above 66.7 µM.
The compound `CCOC(=O)c1c(-c2ccc(-c3ccccc3)cc2)csc1NC(=O)C1C2CCC(O2)C1C(=O)O` (stereo not given) had an IC50 above 66.7 µM.
As for `O=S(=O)(c1c[nH]cn1)N1CCc2ccccc21` [SMR000026956], the IC50 is above 66.7 µM.
With `COc1ccc(Cl)cc1-n1c(=S)sc2c(O)nc(SCC(=O)NCC3CCCO3)nc21` (stereo not given) [2-[[3-(5-chloranyl-2-methoxy-phenyl)-7-oxidanylidene-2-sulfanylidene-4H-[1,3]thiazolo[4,5-d]pyrimidin-5-yl]sulfanyl]-N-(oxolan-2-ylmethyl)ethanamide], the IC50 is above 66.7 µM.
Compound `COc1ccccc1C1C(C(=O)c2ccccc2)C(=O)C(=O)N1CCO` (stereo not given) [(4Z)-1-(2-hydroxyethyl)-4-[hydroxy(phenyl)methylene]-5-(2-methoxyphenyl)pyrrolidine-2,3-quinone] displayed an IC50 above 66.7 µM and an inhibitory constant (Ki) above 40.3 µM.
In the case of `CCCC(=O)Nc1c2c(nn1-c1ccc(OC)cc1)C[S+]([O-])C2` (stereo not given) [MLS000086302], the IC50 was above 66.7 µM.
Take `COc1cc(C2C(C(=O)c3ccco3)C(=O)C(=O)N2c2cc(C)on2)cc(Br)c1O` (stereo not given) [2-(3-bromanyl-5-methoxy-4-oxidanyl-phenyl)-3-(furan-2-ylcarbonyl)-1-(5-methyl-1,2-oxazol-3-yl)-4-oxidanyl-2H-pyrrol-5-one]: the IC50 is above 66.7 µM and the Ki was above 40.3 µM.
With `Cc1cccc(C2CC(c3ccc(Cl)cc3)Nc3nc(N)nn32)c1` (stereo not given) [5-(4-chlorophenyl)-7-(3-methylphenyl)-1,5,6,7-tetrahydro-[1,2,4]triazolo[1,5-a]pyrimidin-2-amine], the IC50 is above 66.7 µM.
The compound `CCCOc1ccc(C2C(C(=O)c3ccc(C)o3)C(=O)C(=O)N2Cc2cccnc2)cc1` (stereo not given) [3-(5-methylfuran-2-yl)carbonyl-4-oxidanyl-2-(4-propoxyphenyl)-1-(pyridin-3-ylmethyl)-2H-pyrrol-5-one] gave an IC50 above 66.7 µM and an inhibitory constant (Ki) above 40.3 µM.
Compound `Cc1ccc(F)c(NC(=O)C2CCCCC2C(=O)O)c1` (stereo not given) [2-[(2-fluoranyl-5-methyl-phenyl)carbamoyl]cyclohexane-1-carboxylic acid] registered an IC50 above 66.7 µM.
As for `Cc1cc(N2C(=O)C(=O)C(C(=O)c3ccc(F)cc3)C2c2cccc(Br)c2)no1` (stereo not given) [(4E)-5-(3-bromophenyl)-4-[(4-fluorophenyl)-hydroxy-methylene]-1-(5-methylisoxazol-3-yl)pyrrolidine-2,3-quinone], the concentration for half-maximal inhibition (IC50) is above 66.7 µM and the inhibition constant (Ki) was above 40.3 µM.
On to `Cc1nc2c(C#N)c(C)[nH]n2c(=O)c1Cc1ccccc1`, for which the concentration for half-maximal inhibition (IC50) is above 66.7 µM.
The same measure, in the same setting: under `CSc1ccccc1NS(=O)(=O)c1ccccc1` [MLS000064343] stands above 66.7 µM; under `O=C(Nc1nnc(-c2ccccc2Cl)o1)c1ccc(S(=O)(=O)N2CCCCCC2)cc1` [4-(1-azepanylsulfonyl)-N-[5-(2-chlorophenyl)-1,3,4-oxadiazol-2-yl]benzamide], above 66.7 µM; under `COc1ccc(-c2nc(-c3ccc(Br)o3)no2)cc1OC` [3-(5-bromanylfuran-2-yl)-5-(3,4-dimethoxyphenyl)-1,2,4-oxadiazole], above 66.7 µM.
The same measure, in the same setting: to `CCC(C)(C(=O)NC1CCCC1)N(CC1CCCO1)C(=O)c1ccc2c(c1)OCO2` (stereo not given) [MLS000095004] belongs above 66.7 µM.
Still for that read-out and setting: under `COc1ccc(CN(C(=O)c2ccccc2OC)C2CCS(=O)(=O)C2)cc1` (stereo not given) [MLS000041347] stands above 66.7 µM.
In turn, `Cc1sc(NC(=O)C2CCCCC2C(=O)O)c(C(N)=O)c1-c1ccc(C(C)(C)C)cc1` (stereo not given) [2-({[3-(aminocarbonyl)-4-(4-tert-butylphenyl)-5-methyl-2-thienyl]amino}carbonyl)cyclohexanecarboxylic acid] registered an IC50 above 66.7 µM.
On to `N#Cc1c(C(F)(F)F)cc(-c2ccccc2)nc1SCc1nc(N)nc(N2CCOCC2)n1` [2-[(4-amino-6-morpholin-4-yl-1,3,5-triazin-2-yl)methylsulfanyl]-6-phenyl-4-(trifluoromethyl)pyridine-3-carbonitrile], for which the IC50 is above 66.7 µM.

The values are drawn from BindingDB's records for doi:10.7270/Q2DF6PMF (Nmmlsc, 2007).
